Laboratory results published in PubChem BioAssay (NCI).
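Following 48 hours of exposure in 96-well plates, responses at five concentrations were used to interpolate endpoints linearly. GI50 marks 50% less growth. The concentration for full growth arrest is given as TGI.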

Legend:
Experiment in all cases: NCI tumour cell line growth inhibition, 48 h
A498 renal = system: A498 renal
A549 NSCLC = system: A549 NSCLC
DU-145 prostate = system: DU-145 prostate
HOP-92 NSCLC = system: HOP-92 NSCLC
KM12 colon = system: KM12 colon
NCI/ADR-RES ovarian = system: NCI/ADR-RES ovarian
OVCAR-8 ovarian = system: OVCAR-8 ovarian
RXF 393 renal = system: RXF 393 renal
SNB-19 CNS = system: SNB-19 CNS
U251 CNS = system: U251 CNS

| SMILES | TGI (A498 renal) [µM] | TGI (A549 NSCLC) [µM] | TGI (DU-145 prostate) [µM] | TGI (HOP-92 NSCLC) [µM] | TGI (KM12 colon) [µM] | TGI (NCI/ADR-RES ovarian) [µM] | TGI (OVCAR-8 ovarian) [µM] | TGI (RXF 393 renal) [µM] | TGI (SNB-19 CNS) [µM] | TGI (U251 CNS) [µM] | GI50 (A498 renal) [µM] | GI50 (A549 NSCLC) [µM] | GI50 (DU-145 prostate) [µM] | GI50 (HOP-92 NSCLC) [µM] | GI50 (KM12 colon) [µM] | GI50 (NCI/ADR-RES ovarian) [µM] | GI50 (OVCAR-8 ovarian) [µM] | GI50 (RXF 393 renal) [µM] | GI50 (SNB-19 CNS) [µM] | GI50 (U251 CNS) [µM] |
| --- | --- | --- | --- | --- | --- | --- | --- | --- | --- | --- | --- | --- | --- | --- | --- | --- | --- | --- | --- | --- |
| O=C1c2cccnc2C(=O)C2C3C=CC(C3)C12 (stereo not given) | 44.7 | 50.8 | 19.8 | 27 | 32 | > 100 | 30 | 10.3 | 34.3 | 16.7 |  |  |  |  |  |  |  |  |  |  |
| COc1cc2cc(C(=O)CCC(=O)O)sc2cc1OC | 45.4 | > 100 | > 100 | > 100 | > 100 | > 100 | > 100 | > 100 | > 100 | > 100 | 18.7 | > 100 | > 100 | 37.3 | > 100 | > 100 | > 100 | 33.4 | > 100 | > 100 |
| CCCCOc1ccc(NC(=O)n2nc(N)c3ccccc32)cc1 | 49.4 | > 87.9 | 70 | 54.1 | 54.2 | 71.1 | > 85.9 | 61.2 | > 100 | > 100 | 20.1 | 21.6 | 19.8 | 17.7 | 13.2 | 23.9 | 30.3 | 25.8 | 52 | 30.9 |
| CC(=O)N1N=C(c2ccc(Nc3nc(Nc4ccc(Cl)cc4)nc(Nc4ccc(Cl)cc4)n3)cc2)CC1c1ccc([N+](=O)[O-])cc1 (stereo not given) | 19.6 | > 86.5 | > 54.9 | 54.7 | > 62.4 | > 70.4 | > 100 | 9.2 | 38.7 | > 100 | 1.97 | 5.57 | 5.56 | 5.18 | 5.72 | 5.41 | 8.54 | 2.29 | 3.8 | 7.42 |
| CCOc1ccc(-c2cnnn2-c2nonc2-n2cccc2)cc1 | 0.924 | > 100 | 0.905 | 9.27 | 10.1 | > 38.1 | > 100 | 0.774 | > 100 | > 78.7 | 0.203 | 0.388 | 0.286 | 0.401 | 0.125 | 0.139 | 0.439 | 0.172 | 0.729 | 0.339 |
| CC(C)(O)C#Cc1ccc(/C=C/C(=O)c2ccccc2)s1 | 32.2 | 30.5 | 28.1 | 27.1 | 14.4 | 39 | 29.9 | 28.7 | 31.7 | 26.5 | 17.7 | 16.5 | 14.9 | 13.6 | 4.37 | 18.3 | 15.9 | 14.7 | 16.9 | 13.6 |
| CC(=O)Nc1ccc(/C=C/C(=O)c2ccccc2)cc1 | 36.7 | 45.4 | 10.6 | 51.1 | 16 | 73.1 | 30.4 | 27.5 | 34.1 | 17.7 | 15.9 | 20.5 | 3.13 | 17.9 | 4.47 | 17.4 | 12.3 | 13.9 | 13.5 | 4.61 |
| Cn1cc(C2=C(c3cccc(N)c3)C(=O)NC2=O)c2ccccc21 | > 6.7 | > 25 | > 25 | > 25 | > 20 | > 25 | > 25 | > 17.7 | > 25 | > 25 | 1.13 | 14.1 | 19 | > 25 | 7.95 | > 19.7 | 17.4 | 3.63 | > 25 | 10.4 |
| CCCCCc1nc2c(c3c1CCCC3)CCCC2 | 19.6 | 64 | > 100 | 8.36 | 33.7 | 22.6 | 36.9 | 27.3 | > 100 | 29.1 | 3.28 | 11.9 | 23.2 | 1.95 | 6.94 | 3.91 | 10.1 | 13.1 | 18.3 | 11.9 |
| C#CCN(Cc1nc2cc(C(F)(F)F)ccc2nc1-c1ccccc1)c1ccc(OC(F)(F)F)cc1 | > 100 | > 100 | > 100 | 77.3 | 78.8 | > 100 | > 100 | > 100 | > 100 | > 100 | 50.1 | 63.8 | 36.5 | 18.5 | 29.1 | > 100 | 74.3 | 46.7 | > 100 | 48.8 |
| COc1cc(-n2cc(-c3ccc(F)cc3)nc2SCc2ccccc2)cc(OC)c1OC | > 100 | > 100 | > 100 | 37 | > 100 | > 100 | > 100 | > 100 | > 100 | > 100 | 37.4 | > 100 | > 100 | 1.48 | > 100 | > 100 | > 100 | 19.4 | > 100 | > 100 |
| Cc1ccc2c(c1)c1nc3cc(C)c(C)cc3nc1n2CCN(C)C | 3.34 | 4.72 | 10.6 | 4.42 | 10.5 | 5.42 | 8.29 | 3.4 | 9.88 | 8.85 | 1.77 | 1.79 | 2.9 | 1.09 | 2.67 | 1.15 | 1.73 | 1.32 | 2.5 | 2.3 |
| COc1cc(C(=O)N2N=C(c3ccc(S(C)(=O)=O)cc3)CC2c2ccco2)cc(OC)c1OC (stereo not given) | > 100 | > 100 | > 78.1 | > 100 | > 100 | > 67.7 | > 100 | 56 | > 100 | > 100 | 5.15 | 6.92 | 7.04 | 3.65 | 3.51 | 6.04 | 20.2 | 4.74 | 5.92 | 5.09 |
